± gives the uncertainty stated by the source.
Assay: xn = mol fraction of the nth substance listed

CCNCCO + O=C=O
viscosity [mPa·s], 101.3 kPa
Conditions	293.15 K	303.15 K	313.15 K	323.15 K
x2 = 0.09091	51.76 ± 10	29.14 ± 5.8	17.6 ± 3.5	11.32 ± 2.3
x2 = 0.1667	197.6 ± 40	99.53 ± 20	54.38 ± 11	31.96 ± 6.4
x2 = 0.2308	791.4 ± 160	361 ± 73	179.9 ± 36	97.29 ± 19

CCCCCCCCN(CCCCCCCC)CCCCCCCC + C1CCCCC1
303.15 K, 101 kPa
Conditions	viscosity [mPa·s]
x2 = 0.1179	6.488 ± 0.13
x2 = 0.1582	6.33 ± 0.13
x2 = 0.3086	5.344 ± 0.11
x2 = 0.4099	4.83 ± 0.097
x2 = 0.5029	4.33 ± 0.087
x2 = 0.6074	3.468 ± 0.07
x2 = 0.7022	2.757 ± 0.055
x2 = 0.8023	2.054 ± 0.041
x2 = 0.902	1.416 ± 0.028

CCCCCC(C)C + CCCCO
viscosity [mPa·s], 100 kPa
Conditions	x2 = 0.1005	x2 = 0.2014	x2 = 0.3002	x2 = 0.4	x2 = 0.5004	x2 = 0.6006	x2 = 0.7	x2 = 0.8001	x2 = 0.9
293.15 K	0.528 ± 0.007	0.576 ± 0.008	0.634 ± 0.008	0.741 ± 0.009	0.891 ± 0.011	1.1 ± 0.01	1.37 ± 0.02	1.74 ± 0.02	2.24 ± 0.03
303.15 K	0.467 ± 0.007	0.508 ± 0.007	0.549 ± 0.008	0.635 ± 0.008	0.748 ± 0.009	0.902 ± 0.011	1.11 ± 0.01	1.38 ± 0.02	1.75 ± 0.02
313.15 K	0.413 ± 0.006	0.447 ± 0.007	0.476 ± 0.007	0.548 ± 0.008	0.633 ± 0.008	0.751 ± 0.009	0.906 ± 0.011	1.11 ± 0.01	1.39 ± 0.02
323.15 K	0.364 ± 0.006	0.391 ± 0.006	0.422 ± 0.006	0.473 ± 0.007	0.539 ± 0.007	0.633 ± 0.008	0.751 ± 0.009	0.907 ± 0.011	1.12 ± 0.01
